In test [1] the test system is monocytic cell line THP-1. To be noted: cited from earlier work.
In a further test the test system is keratinocytes. To be noted: cited from earlier work.
For test [2], the system named is phosphorylation of eIF4E at ser209 in MV4.11 cell line. Description: cells. The format is cell-based. To be noted: Homo sapiens; MV4.11 cells, 1.5 hr compound incubation, average of at least 2 independent experiments; read-out: plc50 elF4E (converted). On the procedure:
MNK activity in cells was measured by monitoring the phosphorylation of eIF4E at ser209, the known endogenous substrate of MNK1/2, in cell lysates. […] The assay detection is based on the formation of sandwich antibody complexes coupled to donor and acceptor beads. Excitation at 680 nm causes the transfer of a singlet oxygen species between donor and acceptor beads when they are in close proximity by binding to the analyte […], which results in the emission of light at 520-620 nm.
Cells were then lysed and the Aphascreen Surefire protocol followed according to manufacturer's recommendations. 8 ul Acceptor beads (1:50 dilution in kit activation buffer) was added to lysate, shaken 150 rpm for 2 min and incubated for 1.5 hr at room temperature. 3 ul Donor beads (1:20 dilution in kit dilution buffer) were then added, shaken 150 rpm for 2 min and incubated for a further 1.5 hr at room temperature after which the plates were read on Pherastar FS using Alphascreen optic module.
Data were normalised relative to untreated DMSO only controls and curves repeated in duplicate within experiments. Data reported are averages of at least 2 independent experiments.

A further test concerns the target Full-length human MNK1 (Homo sapiens, UniProt Q9BUB5, T385D). Description: MNK1 biochemical IC50 assay (Caliper mobility shift).
A further test deals with Full-length human MNK2 (Homo sapiens, UniProt Q9HBH9, T379D). Description: MNK2 biochemical IC50 assay (Caliper mobility shift).
Full-length human MNK2, sequence (Q9HBH9 whole entry T379D): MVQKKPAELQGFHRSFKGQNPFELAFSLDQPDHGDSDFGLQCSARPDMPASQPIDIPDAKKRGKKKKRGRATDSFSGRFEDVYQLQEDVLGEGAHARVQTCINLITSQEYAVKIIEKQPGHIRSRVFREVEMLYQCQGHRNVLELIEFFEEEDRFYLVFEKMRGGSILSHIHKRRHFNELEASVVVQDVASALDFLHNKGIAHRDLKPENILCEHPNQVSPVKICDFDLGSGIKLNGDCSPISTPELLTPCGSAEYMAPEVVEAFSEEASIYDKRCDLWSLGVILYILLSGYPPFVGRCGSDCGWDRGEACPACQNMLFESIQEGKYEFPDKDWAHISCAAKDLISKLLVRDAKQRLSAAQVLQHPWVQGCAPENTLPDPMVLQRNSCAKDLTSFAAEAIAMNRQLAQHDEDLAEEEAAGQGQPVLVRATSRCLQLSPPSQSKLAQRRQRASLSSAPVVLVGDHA
For a further test, the system named is eIF4E phosphorylation. To be noted: after oral administration, normal mouse tissues and xenografted tumors; cited from earlier work.
A further test concerns HCT116 xenograft. The conditions noted are these: HCT116 xenograft models; cited from earlier work.
Test [3] concerns B16 melanoma lung metastases. To be noted: in vivo; cited from earlier work.

Some results are limits rather than exact numbers.

Full-length human MNK1, sequence (Q9BUB5 1-424 isoform Q9BUB5-2 T344D): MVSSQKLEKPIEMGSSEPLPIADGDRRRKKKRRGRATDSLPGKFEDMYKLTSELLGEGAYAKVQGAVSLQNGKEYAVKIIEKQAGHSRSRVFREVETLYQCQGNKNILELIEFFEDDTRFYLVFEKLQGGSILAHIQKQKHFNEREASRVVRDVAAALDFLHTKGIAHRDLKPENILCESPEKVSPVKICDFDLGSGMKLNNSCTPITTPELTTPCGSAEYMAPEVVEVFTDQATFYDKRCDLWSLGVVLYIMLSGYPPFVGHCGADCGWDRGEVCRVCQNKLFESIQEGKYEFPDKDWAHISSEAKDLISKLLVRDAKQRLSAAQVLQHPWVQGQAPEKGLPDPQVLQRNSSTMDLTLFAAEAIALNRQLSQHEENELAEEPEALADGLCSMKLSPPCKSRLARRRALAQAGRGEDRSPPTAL

Consider `Nc1ncnc2n[nH]c(Nc3ccc(F)cc3)c12` [CGP57380], for which the “block of release of IL-1β and IL-8 induced by Shiga toxin” value in test [1] is reported as 73-96%. For the same compound, in the test with keratinocytes, the TNF-production result was “reduced TNF-production”; the “expression of IL-1β and IL-6” value was “decreased expression”.
As to `CC(C)Oc1ccccc1Nc1ncnc2ccn(C)c12` [Example 28, N-(2-isopropoxyphenyl)-5-methyl-pyrrolo[3,2-d]pyrimidin-4-amine], the IC50 in test [2] is 0.0398 µM; on Full-length human MNK1 it was 0.398 µM; at Full-length human MNK2 it was 0.158 µM.
For `CC(C)Oc1ncccc1Nc1ncnc2ccn(C)c12` [Example 29, N-(2-isopropoxy-3-pyridyl)-5-methyl-pyrrolo[3,2-d]pyrimidin-4-amine] the same measures were 0.0501 µM, 0.251 µM and 0.1 µM.
On the same counts, the results for `CCOc1cc(F)ccc1Nc1ncnc2ccn(C)c12` [Example 30, N-(2-ethoxy-4-fluoro-phenyl)-5-methyl-pyrrolo[3,2-d]pyrimidin-4-amine] are 0.0631 µM, 0.2 µM and 0.126 µM.
For `Cn1ccc2ncnc(Nc3ccc(F)cc3OCC(F)F)c21` [Example 31, N-[2-(2,2-difluoroethoxy)-4-fluoro-phenyl]-5-methyl-pyrrolo[3,2-d]pyrimidin-4-amine] the same measures were 0.0501 µM, 0.316 µM and 0.158 µM.
Regarding `CC(C)Oc1c(Nc2ncnc3ccn(C)c23)ccc(F)c1F` [Example 32, N-(3,4-difluoro-2-isopropoxy-phenyl)-5-methyl-pyrrolo[3,2-d]pyrimidin-4-amine], the IC50 was 0.794 µM in test [2], 2 µM on Full-length human MNK1 and 1 µM at Full-length human MNK2.
For `CC(C)Oc1c(F)cccc1Nc1ncnc2ccn(C)c12` [Example 33, N-(3-fluoro-2-isopropoxy-phenyl)-5-methyl-pyrrolo[3,2-d]pyrimidin-4-amine] the same measures were 0.0251 µM, 0.1 µM and 0.0501 µM.
For `CCOc1ncccc1Nc1ncnc2ccn(C)c12` [Example 34, N-(2-ethoxy-3-pyridyl)-5-methyl-pyrrolo[3,2-d]pyrimidin-4-amine] the same measures were 0.126 µM, 0.398 µM and 0.251 µM.
Consider `COc1ncccc1Nc1ncnc2ccn(C)c12` [Example 35, N-(2-methoxy-3-pyridyl)-5-methyl-pyrrolo[3,2-d]pyrimidin-4-amine], for which the IC50 in test [2] is 1 µM; at Full-length human MNK1, 1.58 µM; on Full-length human MNK2 it was 1.26 µM.
For `Cn1ccc2ncnc(Nc3ccc(F)cc3O[C@H]3CCCC[C@@H]3O)c21` [Example 36, (1S,2S)-2-[5-fluoro-2-[(5-methylpyrrolo[3,2-d]pyrimidin-4-yl)amino]phenoxy]cyclohexanol] the same measures were 0.0398 µM, 0.794 µM and 0.251 µM.
With `CO[C@H]1CCCC[C@@H]1Oc1cc(F)ccc1Nc1ncnc2ccn(C)c12` [Example 37, N-[4-fluoro-2-[(1S,2S)-2-methoxycyclohexoxy]phenyl]-5-methyl-pyrrolo[3,2-d]pyrimidin-4-amine], the figures for the IC50 (in test [2]; on Full-length human MNK1; on Full-length human MNK2) were 0.251 µM, 15.8 µM and 0.794 µM, respectively.
On the same counts, the results for `CO[C@@H]1CCCC[C@H]1Oc1cc(F)ccc1Nc1ncnc2ccn(C)c12` [Example 38, N-[4-fluoro-2-[(1R,2R)-2-methoxycyclohexoxy]phenyl]-5-methyl-pyrrolo[3,2-d]pyrimidin-4-amine] are 0.0398 µM, 2 µM and 0.316 µM.
On the same counts, the results for `CN(C)CCCNC(=O)c1cc2ncnc(N3CCc4cc(F)ccc43)c2[nH]1` [Example 39, N-[3-(dimethylamino)propyl]-4-(5-fluoroindolin-1-yl)-5H-pyrrolo[3,2-d]pyrimidine-6-carboxamide] are 0.0251 µM, 0.0126 µM and 0.0126 µM.
Consider `CC(C)Oc1cc(F)ccc1Nc1ncnc2cc(C(=O)NCCN3CCNCC3)n(C)c12` [Example 42, 4-{[4-Fluoro-2-(propan-2-yloxy)phenyl]amino}-5-methyl-N-[2-(piperazin-1-yl)ethyl]-5H-pyrrolo[3,2-d]pyrimidine-6-carboxamide], for which the IC50 was 0.1 µM in test [2], 0.0501 µM on Full-length human MNK1 and 0.0501 µM at Full-length human MNK2.
With `CC(C)Oc1cc(F)ccc1Nc1ncnc2c(Cl)c(C(=O)NCCCN(C)C)n(C)c12` [Example 43, 7-Chloro-N-[3-(dimethylamino)propyl]-4-{[4-fluoro-2-(propan-2-yloxy)phenyl]amino}-5-methyl-5H-pyrrolo[3,2-d]pyrimidine-6-carboxamide], the IC50 in test [2] is 0.794 µM; at Full-length human MNK1, 1.26 µM; at Full-length human MNK2, 1 µM.
As for `CC(C)Oc1cc(F)ccc1Nc1ncnc2cc(C(=O)NCCCN(C)C)[nH]c12` [Example 44, N-[3-(dimethylamino)propyl]-4-(4-fluoro-2-isopropoxy-anilino)-5H-pyrrolo[3,2-d]pyrimidine-6-carboxamide], the IC50 in test [2] was 0.0631 µM; at Full-length human MNK1, 0.0794 µM; at Full-length human MNK2, 0.0631 µM.
For `CC(C)Oc1cc(F)ccc1Nc1ncnc2cc[nH]c12` [Example 45, N-(4-fluoro-2-isopropoxy-phenyl)-5H-pyrrolo[3,2-d]pyrimidin-4-amine], the values for the IC50 (in test [2]; on Full-length human MNK1; on Full-length human MNK2) were 0.501 µM, 0.126 µM and 0.0794 µM, respectively.
As to `CC(=O)C1=C(O)C=C2Oc3c(C(N)=O)c(O)cc(O)c3[C@]2(C)C1=O` [cercosporamide], the “time to effectively block eIF4E phosphorylation” value with eIF4E phosphorylation is no more than 30 min. Besides, the tumor growth entry in the test with HCT116 xenograft is “reducing tumor growth”. The “outgrowth of B16 melanoma lung metastases” value in test [3] is “suppressing the outgrowth”.

The values above are taken from patent US10604524B2, “Pyrropyrimidine compounds as MNKs inhibitors” (LIFEARC, priority 2015, dated 2020).
